Read-outs that look alike come from different tables or passages of the source.
B1: ADC-L1-19-8 (antibody, human IgG1, kappa, V domains shown)
VH: QVQLQESGPGLVKPSQTLSLTCTVSGYAFTAYNIHWVRQAPGQGLEWMGSFDPYDGGSSYNQKFKDRLTISKDTSKNQVVLTMTNMDPVDTATYYCARGWYYFDYWGHGTLVTVSS
VL: DIVMTQTPLSLPVTPGEPASISCRASKSISKYLAWYQQKPGQAPRLLIYSGSTLQSGIPPRFSGSGYGTDFTLTINNIESEDAAYYFCQQHDESPYTFGEGTKVEIKR
modifications: drug-linker L1-19 on cysteine thiols after TCEP reduction; positions not given; DAR 7.1 for the whole conjugate
notes: Antibody-drug conjugate
B2: ROR1-Ab-1 (antibody, human IgG1, kappa, V domains shown)
VH: B1 VH
VL: B1 VL
notes: also called anti-human ROR1 monoclonal antibody ROR1-Ab-1
B3: ADC-L1-0-8 (antibody, human IgG1, kappa, V domains shown)
VH: B1 VH
VL: B1 VL
modifications: drug-linker L1-0 on cysteine thiols after TCEP reduction; positions not given; DAR 6.6 for the whole conjugate
B4: ADC-L1-19-P1-8 (antibody, human IgG1, kappa, V domains shown)
VH: B1 VH
VL: B1 VL
modifications: drug-linker L1-19-P1 on cysteine thiols after TCEP reduction; positions not given; DAR 7.7 for the whole conjugate
notes: Antibody-drug conjugate
B5: ADC-L1-19-9 (antibody, human IgG1, kappa, V domains shown)
VH: EVQLLESGGGLVQPGGSLRLSCAASGFTFSNYAMSWVRQAPGKGLEWVSSISHNSGSTYYADSVKGRFTISRDNSKNTLYLQMNSLRAEDTAVYYCAKFISARKSLGRSYSNGMDVWGQGTLVTVSS
VL: QSVLTQPPSASGTPGQRVTISCTGSSSNIGSNDVTWYQQLPGTAPKLLIYADSKRPSGVPDRFSGSKSGTSASLAISGLRSEDEADYYCGTWDYSLSGYVFGGGTKLTVLR
modifications: drug-linker L1-19 on cysteine thiols after TCEP reduction; positions not given; DAR 7.3 for the whole conjugate
notes: Antibody-drug conjugate
B6: ADC-L1-19-P1-9 (antibody, human IgG1, kappa, V domains shown)
VH: B5 VH
VL: B5 VL
modifications: drug-linker L1-19-P1 on cysteine thiols after TCEP reduction; positions not given; DAR 7.7 for the whole conjugate
notes: Antibody-drug conjugate

Legend:
HCT116 cells = assay: Anti-tumor cell proliferation activity of compound of formula (D-H), Cell-Titer Glo, HCT116; format: cell-based; settings: Homo sapiens, HCT-116, 72 h
Protocol: (§1) Cell culture: HCT116 cells and SKBR3 cells were cultured with a McCoy's 5a medium containing 10% fetal bovine serum+1% penicillin-streptomycin at 37° C. with 5% CO2, and OVCAR3 cells were cultured with a 1640 medium containing 20% fetal bovine serum+2 μg/mL bovine insulin+1% penicillin-streptomycin at 37° C. with 5% CO2. Cells at logarithmic growth phase were available for the experiment.
(§2) Cell proliferation activity test: The Cell-Titer Glo reagent was used to test the compound for inhibitory activity on proliferation of the three cell strains HCT116, SKBR3, and OVCAR3. HCT116 cells (1500 per well), SKBR3 cells (3000 per well), and OVCAR3 cells (5000 per well) were seeded on 96-well plates and incubated at 37° C. with 5% CO2 for 24 h. After a solution of the compound to be detected was added (the compound was dissolved in DMSO so that the compound concentration was 1 mM, then the compound was diluted to […] in DMSO at 9 concentrations in a 3-fold dilution, and 10 μL of the prepared compound solution was transferred to the 96-well plate so that the final concentration was 0-300 nM), the mixture was incubated at 37° C. with 5% CO2. HCT116 cells were cultured for 3 days, and SKBR3 cells and OVCAR3 cells were cultured for 5 days. The Cell-Titer Glo reagent was added and the cell activity was measured.
(§3) A negative control group and a positive control group were respectively used as Bottom and Top. The negative control group was not added with cells, only added with the culture medium in the same volume, and other operations were consistent with those of the experimental group. The positive control group was not added with the test drug, and other operations were consistent with those of the experimental group.
(§4) Data analysis: % Inhibition was calculated, and compound IC50 was fitted.
(§5) % Inhibition=1-100%×(Signal−Bottom)/(Top−Bottom).
(§6) Signal referred to the signal value of the experimental group, Bottom referred to the average signal value of the negative control group, and Top referred to the average signal value of the positive control group.

SKBR3 cells = assay: Anti-tumor cell proliferation activity of compound of formula (D-H), Cell-Titer Glo, SKBR3; format: cell-based, human
Protocol: as §1, §2, §3, §4, §5, §6

OVCAR3 cells = assay: Anti-tumor cell proliferation activity of compound of formula (D-H), Cell-Titer Glo, OVCAR3; format: cell-based; settings: Homo sapiens, OVCAR-3, 120 h
Protocol: as §1, §2, §3, §4, §5, §6

[1] = target: human ROR1 on stably transfected cell strain MCF7-hROR1 clone 2G2 (human, UniProt Q01973 30-406); assay: flow cytometry (FACS) on MCF7-hROR1 clone 2G2 cells, 5-fold dilutions from 100 nM, Alexa Fluor 647 anti-human IgG secondary antibody, four-parameter fit
Protocol: Stably transfected cell strain MCF7-hROR1 clone 2G2 constructed in the steps described above was expanded to a logarithmic growth phase in a T-75 cell culture flask, and the medium supernatant was discarded after centrifugation. The cell pellet was washed twice with PBS. […] After the mixture was washed twice with PBS, a secondary antibody was added: Alexa Fluor® 647 AffiniPure Goat Anti-Human IgG (H+L) (purchased from Jackson Immuno, Cat. No: 109-605-088), and the mixture was incubated at 4° C. for 1 h. After the mixture was washed twice with PBS, the cells were resuspended, and detected and analyzed by FACS (FACS Canto™, purchased from BD Biosciences). Data were analyzed by four-parameter curve fitting using Graphpad Prism software to give EC₅₀ values.

[2] = read-out: HCT116 Antiproliferative activity IC50 (nM), HCT116 cells, 3 days
[3] = Homo sapiens, SK-BR-3, 120 h, read-out: SKBR3 Antiproliferative activity IC50 (nM), SKBR3 cells, 5 days
[4] = read-out: OVCAR3 Antiproliferative activity IC50 (nM)

Row | Molecule | IC50 (HCT116 cells; [2]) | IC50 (SKBR3 cells; [3]) | IC50 (OVCAR3 cells; [4]) | EC50 [1] | further results
1 | CC[C@@]1(O)C(=O)OCc2c1cc1n(c2=O)Cc2c-1nc1cc(F)c(Cl)c(F)c1c2CNC(=O)C(O)C1CC1 (stereo partly drawn) [Compound 23, N—(((S)-9-chloro-4-ethyl-8,10-difluoro-4-hydroxy-3,14-dioxo-3,4,12,14-tetrahydro-1H-pyrano[3′,4′:6,7]indolizino[1,2-b]quinolin-11-yl)methyl)-2-cyclopropyl-2-hydroxyacetamide] | < 10 nM | 5.3 nM | 3.9 nM |  | 
2 | CC[C@@]1(O)C(=O)OCc2c1cc1n(c2=O)Cc2c-1nc1cc3c(cc1c2CNC(=O)C(O)C1CC1)OCO3 (stereo partly drawn) [Compound 14-P2, 2-cyclopropyl-N—(((S)-7-ethyl-7-hydroxy-8,11-dioxo-7,8,11,13-tetrahydro-10H-[1,3]dioxolo[4,5-g]pyrano[3′,4′:6,7]indolizino[1,2-b]quinolin-14-yl)methyl)-2-hydroxyacetamide] |  |  |  |  | IC50 (HCT116 cells; HCT116 cells, 3 days, read-out: HCT116 Antiproliferative activity IC50): 10 to 100 nM; IC50 (SKBR3 cells; read-out: SKBR3 Antiproliferative activity IC50, SKBR3 cells, 5 days): 3.5 nM; IC50 (OVCAR3 cells; OVCAR3 cells, 5 days, read-out: OVCAR3 Antiproliferative activity IC50): 1 nM
3 | CC[C@@]1(O)C(=O)OCc2c1cc1n(c2=O)Cc2c-1nc1cc(F)c(Cl)c(F)c1c2CNC(=O)[C@@H](C)O [Compound 25, (R)—N—(((S)-9-chloro-4-ethyl-8,10-difluoro-4-hydroxy-3,14-dioxo-3,4,12,14-tetrahydro-1H-pyrano[3′,4′:6,7]indolizino[1,2-b]quinolin-11-yl)methyl)-2-hydroxypropanamide] | < 10 nM | 3.7 nM | 2 nM |  | 
4 | CC[C@@]1(O)C(=O)OCc2c1cc1n(c2=O)Cc2c-1nc1cc(F)c(Cl)c(F)c1c2CNC(=O)[C@H](C)O [Compound 26, (S)-N-(((S)-9-chloro-4-ethyl-8,10-difluoro-4-hydroxy-3,14-dioxo-3,4,12,14-tetrahydro-1H-pyrano[3′,4′:6,7]indolizino[1,2-b]quinolin-11-yl)methyl)-2-hydroxypropanamide] | < 10 nM | 4.2 nM | 1.6 nM |  | 
5 | CC[C@@]1(O)C(=O)OCc2c1cc1n(c2=O)Cc2c-1nc1cc3c(c(F)c1c2CNC(=O)C(O)C1CC1)OCO3 (stereo partly drawn) [Compound 35, 2-cyclopropyl-N-(((S)-7-ethyl-15-fluoro-7-hydroxy-8,11-dioxo-7,8,11,13-tetrahydro-10H-[1,3]dioxolo[4,5-g]pyrano[3′,4′:6,7]indolizino[1,2-b]quinolin-14-yl)methyl)-2-hydroxyacetamide] | < 10 nM | 3.5 nM | 1.2 nM |  | 
6 | B1 |  |  |  | 0.68 nM | 
7 | B2 |  |  |  | 0.99 nM | 
8 | B3 |  |  |  | 0.75 nM | 
9 | B4 |  |  |  | 0.34 nM | 
10 | B5 |  |  |  | 0.42 nM | 
11 | B6 |  |  |  | 0.5 nM | 

— patent US20250304717A1, “CAMPTOTHECIN DERIVATIVE AND LIGAND-DRUG CONJUGATE” (HAINAN SIMCERE ZAIMING PHARMACEUTICAL CO., LTD., priority 2022, published 2025)
